Measurements: patent publication US20250145608A1, “KRAS DEGRADING COMPOUNDS COMPRISING ANNULATED 2-AMINO-3-CYANO THIOPHENES” (Boehringer Ingelheim Int'l GmbH Corp., priority 2021, published 2025)

What was measured:
Format in all cases: cell-based
[1] = tested on: GP5d cells; assay: GP5d cell proliferation assay (colorectal cancer, G12D), 5 days; details: Homo sapiens, 120 h
Outline: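 Cells in DMEM + 10% FCS received logarithmic compound dilutions (DMSO-normalized) and were grown for 5 days. Viability read by CellTiter-Glo luminescence as percent of DMSO controls, with a T0 reading at compound addition; IC50 from a four-parameter logistic fit.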

[2] = target: T1, KRAS4B WT (Homo sapiens, UniProt P01116); assay: HiBit KRAS4B mutant spectrum degradation assay, KRAS4B WT in GP5d cells (18 h); details: KRAS mutation G12WT
T1 construct: HiBit; expressed in transfected cells; host or cells: GP5d cells (ECACC 95090715), stably transduced with lentivirus, CMV promoter
T1 sequence (P01116 1-188 isoform P01116-2): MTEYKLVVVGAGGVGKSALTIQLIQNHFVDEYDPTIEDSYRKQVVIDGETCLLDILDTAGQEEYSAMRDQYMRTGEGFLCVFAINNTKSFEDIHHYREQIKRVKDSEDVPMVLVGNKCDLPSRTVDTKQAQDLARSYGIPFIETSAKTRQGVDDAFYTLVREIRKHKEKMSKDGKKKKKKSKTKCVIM
From the text: The therapeutically relevant mutant KRAS constructs (WT, G12C, G12D, G12V, G13D) were obtained by site directed mutagenesis using a KRAS4B WT cDNA construct as a template. GP5d cells (ECACC Cat. No. 95090715) were transduced with lentiviral vectors expressing mutant KRAS4B cDNA under control of a CMV promoter. Stably transduced cells were selected using a neomycin selectable marker encoded on the construct.
To assess PROTAC-mediated degradation of various KRAS mutants, GP5d cells stably transduced with KRAS4B constructs as described above were seeded at 25000 cells per well in 100 μL Dulbecco's Modified Eagle medium (Sigma cat. no. D6429) supplemented with 10% fetal calf serum into white bottom opaque 96 well plates (Perkin Elmer cat no. 5680). Plates were incubated at 37° C., 5% CO2 in a humidified incubator over night to allow the cells to adhere. […] Plates were further incubated at 37° C. for 18 hours. Following incubation, 100 μL per well Promega Nano-Glo HiBit lytic detection reagent mix (Promega Nano-Glo HiBit Lytic Detection System #N3050), prepared according to the manufacturer's instructions in the kit, were added. To allow for adequate cell lysis, plates were incubated on an orbital shaker for 15 min and further incubated 30 min at room temperature. Upon completion of cell lysis, luminescence was measured using an Envision plate reader using the Ultrasensitive Luminescence Protocol for 96 well plates. Luminescence levels were normalized by the values obtained with DMSO-treated samples and plotted as percent of DMSO control. DC50 values were computed using a four parametric logistic model and are reported in nM in Table 65 for representative example (Ex.) compounds of the invention. Dmax values represent the maximal extent of degradation observed and is stated as percent of control (% Ctrl.) treatments in Table 66 for representative example (Ex.) compounds of the invention.

[3] = tested on: A375 cells; assay: A375 CTG proliferation assay (120 h) (melanoma, wt, B-Raf mutant, negative control); details: Homo sapiens, A-375, negative control cell line
Description: A375 CTG Proliferation Assay (120 h) (Melanoma, Wt, B-Raf Mutant, Negative Control)
A375 cells (ATCC CRL-1619) are dispensed into 384-well plates, flat and clear bottom (Greiner, PNr. 781091) at a density of 300 cells per well in 60 μL DMEM (Sigma D6429)+10% Fetal Calf Serum (HyClone, PNr.: SH30084.03) and incubated at 37° C. in a CO2 incubator overnight. The next day, compounds (10 mM stock in DMSO) are added at logarithmic dose series using the HP Digital Dispenser D300 (Tecan), including DMSO controls. Plates are incubated for 120 h, and cell viability is measured using CellTiter-Glo luminescent cell viability reagent (Promega product code G7570). Viability (stated as percent of control) is defined as relative luminescence units RLU of each well divided by the RLU of cells in DMSO controls. IC50 values are determined from viability measurements by non-linear regression using a four-parameter model.

| Compound | IC50 [1] [nM] | DC50 [2] [nM] | Dmax at 18 h [2] [% Ctrl.] | IC50 [3] [nM] |
| --- | --- | --- | --- | --- |
| Cc1ncsc1-c1ccc(CNC(=O)[C@@H]2C[C@@H](O)CN2C(=O)[C@H](c2cc(OCCCN3CCCN(c4nccc(-c5noc([C@@]6(C)CCCc7sc(N)c(C#N)c76)n5)n4)[C@@H](C)C3)no2)C(C)C)cc1 (single isomer, unassigned) [I-24] | 766 | – | – | – |
| Cc1ncsc1-c1ccc(CNC(=O)[C@@H]2C[C@@H](O)CN2C(=O)[C@@H](c2cc(OCCCN3CCCN(c4nccc(-c5noc([C@@]6(C)CCCc7sc(N)c(C#N)c76)n5)n4)[C@@H](C)C3)no2)C(C)C)cc1 (single isomer, unassigned) [I-25] | 3.97 | 0.8 | 96 | – |
| Cc1ncsc1-c1ccc(CNC(=O)[C@@H]2C[C@@H](O)CN2C(=O)[C@@H](c2cc(OCCCCN3CCCN(c4nccc(-c5noc([C@@]6(C)CCCc7sc(N)c(C#N)c76)n5)n4)[C@@H](C)C3)no2)C(C)C)cc1 (single isomer, unassigned) [I-27] | 4 | 0.7 | 95.5 | ≥ 3000 |
| Cc1ncsc1-c1ccc([C@@H](NC(=O)[C@@H]2C[C@@H](O)CN2C(=O)[C@H](C(C)C)n2cc(OCCCCN3CCCN(c4nccc(-c5noc([C@@]6(C)CCCc7sc(N)c(C#N)c76)n5)n4)[C@@H](C)C3)nn2)[C@H](C)O)cc1 (single isomer, unassigned) [I-41] | – | 0.5 | 98.0 | ≥ 3000 |
| Cc1ncsc1-c1ccc([C@@H](NC(=O)[C@@H]2C[C@@H](O)CN2C(=O)[C@H](C(C)C)n2cc(OCCCN3CCCN(c4nccc(-c5noc([C@@]6(C)CCCc7sc(N)c(C#N)c76)n5)n4)[C@@H](C)C3)nn2)[C@H](O)C(C)C)cc1 (single isomer, unassigned) [I-43] | – | 0.5 | 98.1 | ≥ 3000 |
| Cc1ncsc1-c1ccc([C@@H](NC(=O)[C@@H]2C[C@@H](O)CN2C(=O)[C@H](C(C)C)n2cc(OCCCCN3CCCN(c4nccc(-c5noc([C@@]6(C)CCCc7sc(N)c(C#N)c76)n5)n4)[C@@H](C)C3)nn2)[C@H](O)C(C)C)cc1 (single isomer, unassigned) [I-45] | – | – | – | ≥ 3000 |
| Cc1ncsc1-c1ccc(CNC(=O)[C@@H]2C[C@@H](O)CN2C(=O)C(c2cc(OCCCCN3CCCN(c4nccc(-c5cc([C@@]6(C)CCCc7sc(N)c(C#N)c76)on5)n4)[C@@H](C)C3)no2)C(C)C)cc1 (stereo partly shown) [I-4] | 36.1 | – | – | – |
| CC(C)C(C(=O)N1C[C@H](O)C[C@H]1C(=O)NCc1ccc(C#N)cc1)c1cc(OCCCCN2CCCN(c3nccc(-c4noc([C@@]5(C)CCCc6sc(N)c(C#N)c65)n4)n3)[C@@H](C)C2)no1 (stereo partly shown) [I-16] | – | – | – | ≥ 3000 |
| Cc1ncsc1-c1ccc([C@H](C)NC(=O)[C@@H]2C[C@@H](O)CN2C(=O)C(C(C)C)n2cc(OCCCCN3CCCN(c4nccc(-c5noc([C@@]6(C)CCCc7sc(N)c(C#N)c76)n5)n4)[C@@H](C)C3)nn2)cc1 (stereo partly shown) [I-28] | – | – | – | 1090 |
| Cc1ncsc1-c1ccc([C@H](CO)NC(=O)[C@@H]2C[C@@H](O)CN2C(=O)[C@H](C(C)C)n2cc(OCCCCN3CCCN(c4nccc(-c5noc([C@@]6(C)CCCc7sc(N)c(C#N)c76)n5)n4)[C@@H](C)C3)nn2)cc1 [I-29] | – | 0.8 | 97.2 | ≥ 3000 |
| Cc1ncsc1-c1ccc([C@H](CO)NC(=O)[C@@H]2C[C@@H](O)CN2C(=O)[C@H](C(C)C)n2cc(OCCCC(C)N3CCCN(c4nccc(-c5noc([C@@]6(C)CCCc7sc(N)c(C#N)c76)n5)n4)[C@@H](C)C3)nn2)cc1 (stereo partly shown) [I-30] | – | 0.4 | 97.8 | ≥ 3000 |
| Cc1ncsc1-c1ccc([C@H](CO)NC(=O)[C@@H]2C[C@@H](O)CN2C(=O)[C@H](C(C)C)n2cc(OC(C)CCCN3CCCN(c4nccc(-c5noc([C@@]6(C)CCCc7sc(N)c(C#N)c76)n5)n4)[C@@H](C)C3)nn2)cc1 (stereo partly shown) [I-31] | – | 1.7 | 97.5 | ≥ 3000 |
| Cc1ncsc1-c1ccc([C@H](CCO)NC(=O)[C@@H]2C[C@@H](O)CN2C(=O)[C@H](C(C)C)n2cc(OCCCCN3CCCN(c4nccc(-c5noc([C@@]6(C)CCCc7sc(N)c(C#N)c76)n5)n4)[C@@H](C)C3)nn2)cc1 [I-38] | – | – | – | ≥ 3000 |
